{
  "source": "paper PMC4626104",
  "about": "“Inhibition on Proteasome β1 Subunit Might Contribute to the Anti-Cancer Effects of Fangchinoline in Human Prostate Cancer Cells” (PLoS ONE, 2015)",
  "key": {"[1]": {"biological_target": "T1, recombinant human proteasome β1 subunit (Homo sapiens, UniProt P28072)", "T1 construct": "His-Tag; made in house; host or cells: Escherichia coli", "T1 sequence (P28072 1-239)": "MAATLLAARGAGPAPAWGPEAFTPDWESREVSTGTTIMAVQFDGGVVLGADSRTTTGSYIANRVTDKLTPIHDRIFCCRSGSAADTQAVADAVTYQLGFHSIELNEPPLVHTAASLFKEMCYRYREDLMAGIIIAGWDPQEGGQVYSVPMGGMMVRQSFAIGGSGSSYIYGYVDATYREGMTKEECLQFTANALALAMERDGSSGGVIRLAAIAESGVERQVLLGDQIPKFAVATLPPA", "assay": "Enzyme activity of recombinant proteasome catalytic β1 subunit (Z-LLE-AMC)", "type": "biochemical", "settings": "50 μM Z-LLE-AMC, 2 h incubation", "experimental": "Briefly, catalytic activity of the recombinant human proteasome β1 subunit was assayed by adding recombinant β1 subunit protein (30 μg) to 100 μL of proteasome activity assay buffer (10 mM Tris-HCL, pH 7.8, 5 mM adenosine triphosphate, 0.5 mM dithiothreitol and 5 mM MgCL2•6H2O) containing 50 μM Z-LLE-AMC in the presence of fangchinoline or tetrandrine at different concentrations or not. The hydrolase activity of the proteasome catalytic β1 subunit could release the fluorogenic AMC component from substrate Z-LLE-AMC and the AMC release was measured after 2 h incubation using a Microplate Reader Bio-Rad 550 with excitation and emission wavelengths of 360 and 465 nm, respectively."}, "[2]": {"biological_target": "T1, recombinant human proteasome β1 subunit", "assay": "Surface plasmon resonance (Biacore) binding assay", "settings": "Biacore, 25°C, 1:1 Langmuir model", "experimental": "The recombinant human proteasome β1 subunit, product of PSMB6 gene, was expressed as His-Tag proteins using Escherichia coli, and then purified by affinity chromatography as reported in our previous study. The binding affinities of fangchinoline or tetrandrine to recombinant proteasome catalytic β1 subunit, were assayed in vitro using an Biacore 3000 instrument (Biacore AB, Rapsgatan 7, S-754 50 Uppsala, Sweden) as reported before. Briefly, recombinant proteasome β1 subunit protein was immobilized on a CM5 sensor chip as ligand in 11624.5 RU with N-ethyl-N’-(3-dimethylaminopropyl) carbodiimide and N-hydroxysuccinimide according to the standard primary amine-coupling procedures, and HBS-EP (10 mM HEPES, 150 mM NaCl, 3 mM EDTA, 0.005% (v/v) surfactant P20, pH 7.4) was used as the running buffer. Equilibration of the baseline was performed by a continuous flow of HBS-EP through the chip surface for 1 to 2 h. Biacore data were collected at 25°C with HBS-EP as the running buffer at a constant flow of 20 μL/min. Fangchinoline or tetradrine was serially diluted into the running buffer to 0, 2.4, 3.43, 4.90, 7.0, 10 and 20 μM. The samples were injected into the channels at a flow rate of 20 μL/min, followed by washing with the running buffer. The binding responses were recorded continuously in response units (RU) at a frequency of 1Hz as sensorgrams and presented as a function of time. The association (k a) and dissociation (k d) rate constants, the equilibrium dissociation constant ( KD=kd/ka ) were determined by analysis of the sensorgram-curves obtained at different concentrations of the compound by use of BIA evaluation software version 3.1 (Biacore) and the 1:1 Langmuir binding fitting model."}, "[3]": {"biological_target": "T2, purified human erythrocyte 20S proteasome (Homo sapiens, UniProt P28072)", "T2 construct": "purchased Enzo Life Sciences, Inc; host or cells: human erythrocytes", "assay": "C-L activity of purified human 20S proteasome", "type": "biochemical", "experimental": "The 20S proteasome assay kit was bought from Enzo Life Sciences, Inc. (Farmingdale, NY 11735, USA). The Km, Vmax values of the purified human erythrocyte 20S proteasome for fluorigenic peptide substrate Z-LLE-AMC are measured according to the instructions provided by the manufacturer. Inactivation of purified human erythrocyte 20S proteasome by fangchinoline was determined by monitoring the hydrolysis of substrate in the presence of different concentrations of fangcinoline. Assays were performed at 37°C in a reaction buffer (50 μL) containing 50 mM Tris/HCL, pH 7.5, 25 mM KCL, 10 mM NaCL, 1 mM MgCL2, 0.1 μg 20S proteasome and Z-LLE-AMC. Reactions were allowed to proceed for 120 min, and fluorescence data were collected every 1 min, and then plotted as a function of time. The apparent dissociation constant, Ki ^app, was determined by non-linear least-fit of the fractional velocity, vi/v0, as a function of [I], where vi is the steady state residual activity of the enzyme in the presence of inhibitor (I) and v0 is the initial velocity in the absence of inhibitor ( Vi/V0=1/1+[I]/Kiapp ). The dissociation constant, Ki, was calculated from the apparent dissociation constant, Ki ^app, using the following expression, where [S] is the substrate concentration and Km is the substrate binding constant ( Ki=Kiapp/1+[S]/Km )."}, "[4]": {"system": "ubiquitinated proteins, IκB-α, Bax, p27 in PC-3 cells", "assay": "Western blotting of ubiquitinated proteins and proteasome substrates in PC-3 cells", "type": "cell-based, human", "experimental": "Western blotting assay was conducted as described before. Briefly, an aliquot of protein (100 μg) sample was loaded onto a 12% SDS gel, separated electrophoretically, and transferred to a Nitrocellulose membrane (Bio-Rad). After the membrane was incubated with 10 mM TBS with […] and 5% dehydrated skim milk to block nonspecific protein binding, the membrane was incubated with primary antibodies overnight at 4°C. The primary antibodies (all from Cell Signaling Technology) used were rabbit polyclonal antibody against human IκB-α (#4812, 1:400), Bax (#2772, 1:400), proteasome β1 subunit (PSMB6) (#13267, 1:500), β-actin (#4967, 1:400) and mouse monoclonal antibody against human p27 Kip1 (#3688, 1:400) or ubiquitin (#3936, 1:1000). After TBS washes, blots were then incubated with secondary antibody for 2 h at room temperature at a 1:1000 dilution and then visualized using chemiluminescence (Pierce Biotechnology, Rockford, IL, USA). The secondary antibodies used were HRP-linked goat anti-rabbit IgG (#7074) and HRP-linked horse anti-mouse IgG (#7076), both from Cell Signaling Technology."}},
  "data": [
    {"smiles": "COc1ccc2cc1Oc1ccc(cc1)C[C@H]1c3cc(c(OC)cc3CCN1C)Oc1c(O)c(OC)cc3c1[C@H](C2)N(C)CC3", "note": "[fangchinoline]", "values": [
      {"measurement": "Inhibition of enzyme activity of recombinant proteasome β1 subunit", "setting": "[1]", "result": "dose-dependently inhibited"},
      {"measurement": "Dissociation (k d)", "setting": "[2]", "result": 0.0353, "unit": "S^-1"},
      {"measurement": "Kd", "setting": "[2]; read-out: Equilibrium dissociation (K D)", "result": 4.68, "unit": "µM"},
      {"measurement": "kon", "setting": "[2]; pH 7.4, read-out: Association (k a)", "result": 7550, "unit": "M⁻¹ s⁻¹"},
      {"measurement": "Hydrolysis of substrate Z-LLE-AMC by 20S proteasome", "setting": "[3]; 500 μM fangchinoline, 75 μM Z-LLE-AMC", "result": "partly inhibited"},
      {"measurement": "Ki", "setting": "[3]; substrate Z-LLE-AMC, 37°C", "result": "357 ± 30.6", "unit": "µM"},
      {"measurement": "Ubiquitinated IκBα (Ub-IκBα), Ub-p27 and Ub-Bax levels", "setting": "[4]", "result": "dose-dependently and time-dependently induced increase"},
      {"measurement": "Treatment time after which accumulation of ubiquitinated proteins was observed", "setting": "[4]; 27 μM", "result": 1, "unit": "h"},
      {"measurement": "Lowest dose at which accumulation of ubiquitinated proteins was observed", "setting": "[4]; 24 h treatment", "result": 8, "unit": "µM"}
    ]}
  ]
}
